Columns and labels:
[1] = target: T1, WRN helicase (His-WRN527-072) (Homo sapiens, UniProt Q14191); experiment: WRN Helicase Assay (fluorescent forked DNA); assay type: biochemical; settings: 30 min pre-incubation, 60 min reaction at room temperature
T1 construct: in-house produced His-WRN527-072 was used; His (N); made in house
Experimental: To assess the inhibition properties of the invented compounds on WRN helicase activity, a fluorescent assay using forked DNA was set up. In the helicase assay, in-house produced His-WRN527-072 was used. […] 2.5-fold serial dilution of test compounds were prepared for 7 gradient points with DMSO, and then 1.5 μl of each concentration were added to 48.5 μl of assay buffer (25 mM Tris-HCl (pH 8.0), 50 mM NaCl, 2 mM MgCl2, 1 mM DTT, 0.0500 Tween-20, and 2.5 μg/ml BSA) for further dilution. […] Each concentration of the compounds was added as triplicate in the plate. Controls were included in the test to validate the assay. […] Forked DNA and ATP were diluted into 300 nM and 6 mM, respectively, with assay buffer. To initiate the reaction, 5 μl of the dsDNA and ATP solution were added to the assay plate. After 60 minutes room temperature incubation, the plate was transferred to Victor Nivo multimode plate reader (Perkin Elmer, Waltham, MA) and the fluorescence outputs were monitored. GraphPad Prism 9 (GraphPad Software, San Diego, CA) was used to carry out the dose-response curves, deriving IC50s.

SW48 = SW48 cell assay; assay type: cell-based; settings: Homo sapiens
WRN ATPase = target: T2, WRN ATPase (Homo sapiens, UniProt Q14191); experiment: WRN ATPase Assay (ADP-Glo); assay type: biochemical; settings: DNA dependent WRN ATPase activity
T2 construct: in-house produced His-WRN527-072 was used; His (N); made in house
Experimental: WRN ATPase Assay To evaluate the inhibition properties of the invented compounds on DNA dependent WRN ATPase activity, an ATPase assay using ADP-Glo assay kit (Promega, Madison, WI) was established. In the ATPase assay, the same WRN protein and DNA substrate as described in helicase assay were used. The serial dilution of the compounds in DMSO was same as helicase assay. […] All the test wells were set as triplicate. Afterwards, 2.5 μl of assay buffer containing 400 nM DNA substrate and 4 mM ATP were added to each well and incubated for 60 minutes. The protein-free control (maximal inhibition) and no-compound control (no inhibition) were included in the test. To stop the reaction and deplete the excessive ATP, 10 μl of the ADP-Glo™ Reagent from the assay kit were added and incubated for 40 minutes. Then, 20 μl of the ATP detection reagent was added. After 30 minutes incubation, the luminescence was measured using Victor Nivo multimode plate reader (Perkin Elmer, Waltham, MA). Dose-response curves, spanning IC50s, were generated by GraphPad Prism 9 (GraphPad Software, San Diego, CA).

T1 sequence (Q14191 527-1072 limits assumed): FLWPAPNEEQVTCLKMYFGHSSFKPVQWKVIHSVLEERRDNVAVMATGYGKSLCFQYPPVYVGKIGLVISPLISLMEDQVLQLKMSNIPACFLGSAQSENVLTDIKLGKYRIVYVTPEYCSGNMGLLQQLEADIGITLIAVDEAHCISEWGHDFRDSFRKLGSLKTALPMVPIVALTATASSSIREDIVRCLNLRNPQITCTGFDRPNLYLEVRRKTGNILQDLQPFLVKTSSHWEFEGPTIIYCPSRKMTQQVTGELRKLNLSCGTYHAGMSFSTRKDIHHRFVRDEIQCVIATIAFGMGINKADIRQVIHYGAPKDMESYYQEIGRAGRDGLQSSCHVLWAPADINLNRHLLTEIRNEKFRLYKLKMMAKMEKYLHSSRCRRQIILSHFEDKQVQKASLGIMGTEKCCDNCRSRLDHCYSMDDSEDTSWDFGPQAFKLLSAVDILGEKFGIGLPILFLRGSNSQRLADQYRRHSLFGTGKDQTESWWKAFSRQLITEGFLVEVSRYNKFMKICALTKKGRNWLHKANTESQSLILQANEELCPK
T2 sequence (Q14191 527-1072 limits assumed): as above

| Structure (SMILES) | IC50 [1] [nM] | IC50 (SW48) [nM] | IC50 (WRN ATPase) [nM] |
| --- | --- | --- | --- |
| CCc1c(N2C3CC2CN(C(=O)c2ncnc(C)c2O)C3)c(=O)n2nc(C3=CCOCC3)nc2n1CC(=O)Nc1ccc(C(F)(F)F)cc1Cl [Compound 1] | 48000 | – | – |
| CCc1c(N2CC3CC2CN3C(=O)c2ncnc(C)c2O)c(=O)n2nc(C3=CCOCC3)nc2n1CC(=O)Nc1ccc(C(F)(F)F)cc1Cl (centres unmarked) [Compound 2] | 6.4 | 5740 | – |
| CCc1c(N2CC3CCC(C2)N3C(=O)c2ncccc2O)c(=O)n2nc(C3=CCOCC3)nc2n1CC(=O)Nc1ccc(C(F)(F)F)cc1Cl [Compound 4] | 4.5 | 1350 | – |
| CCc1c(N2CC3CCC(C2)N3C(=O)c2ncccc2O)c(=O)n2nc(C3=CCOCC3)nc2n1CC(=O)Nc1ccc(C(F)(F)F)nc1Cl [Compound 8] | 5.9 | 1630 | – |
| CCc1c(N2CC3CCC(C2)N3C(=O)c2ncnc(C)c2O)c(=O)n2nc(C3=CCOCC3)nc2n1CC(=O)Nc1ccc(C(F)(F)F)nc1Cl [Compound 15] | 9.2 | 3490 | – |
| CCc1c(N2[C@@H]3CC[C@H]2CN(C(=O)c2ncnc(C)c2O)C3)c(=O)n2nc(C3=CCOCC3)nc2n1CC(=O)Nc1ccc(C(F)(F)F)cc1C [Compound 17] | 3.5 | 183 | – |
| CCc1c(N2CCCN(C(=O)c3ncnc(C)c3O)CC2)c(=O)n2nc(C3=CCOCC3)nc2n1CC(=O)Nc1ccc(C(F)(F)F)cc1Cl [Compound 19] | 5.1 | 818 | – |
| CCc1c(N2CCC(NC(=O)c3ncnc(C)c3O)C2)c(=O)n2nc(C3=CCOCC3)nc2n1CC(=O)Nc1ccc(C(F)(F)F)cc1C (centres unmarked) [Compound 23] | 6.3 | 1870 | – |
| CCc1c(N2CCN(Cc3cccn(C)c3=O)C(=O)C2)c(=O)n2nc(C3=CCOCC3)nc2n1CC(=O)Nc1ccc(C(F)(F)F)cc1C [Compound 68] | 5000 | – | – |
| CCc1c(N2CC3CC(C(=O)c4ncnc(C)c4O)C(C2)N3)c(=O)n2nc(C3=CCOCC3)nc2n1CC(=O)Nc1ccc(C(F)(F)F)cc1Cl (centres unmarked) [Compound 186] | 2.7 | 716 | 13 |
| CCc1c(N2CC3CC(C2)N3C(=O)c2ncnc(C)c2O)c(=O)n2nc(C3=CCOCC3)nc2n1CC(=O)Nc1ccc(C(F)(F)F)cc1C [Compound 187, 2-(2-(3,6-dihydro-2H-pyran-4-yl)-5-ethyl-6-(6-(5-hydroxy-6-methylpyrimidine-4-carbonyl)-3,6-diazabicyclo[3.1.1]heptan-3-yl)-7-oxo-[1,2,4]triazolo [1,5-a]pyrimidin-4(7H)-yl)-N-(2-methyl-4-(trifluoromethyl)phenyl)acetamide] | 8.6 | 4500 | – |
| CCc1c(N2C3CCC2CN(C(=O)c2ncccc2O)C3)c(=O)n2nc(C3=CCOCC3)nc2n1CC(=O)Nc1ccc(C(F)(F)F)cc1Cl [Compound 189, N-(2-chloro-4-(trifluoromethyl)phenyl)-2-(2-(3,6-dihydro-2H-pyran-4-yl)-5-ethyl-6-(3-(3-hydroxypicolinoyl)-3,8-diazabicyclo[3.2.1]octan-8-yl)-7-oxo-[1,2,4]triazolo[1,5-a]pyrimidin-4(7H)-yl)acetamide] | 4.6 | 1110 | – |
| CCc1c(C2=CCN(C(=O)c3ncnc(C)c3O)CCC2)c(=O)n2nc(C3=CCOCC3)nc2n1CC(=O)Nc1ccc(C(F)(F)F)cc1Cl [Compound 190, N-(2-chloro-4-(trifluoromethyl)phenyl)-2-(2-(3,6-dihydro-2H-pyran-4-yl)-5-ethyl-6-(1-(5-hydroxy-6-methylpyrimidine-4-carbonyl)-2,5,6,7-tetrahydro-1H-azepin-4-yl)-7-oxo-[1,2,4]triazolo[1,5-a]pyrimidin-4(7H)-yl)acetamide] | 5.2 | 2240 | – |
| CCc1c(N2CCN(C(=O)c3ncnc(C)c3O)CC2)c(=O)n2nc(C3C4CC(OC)CC43)nc2n1CC(=O)Nc1ccc(C(F)(F)F)cc1Cl (centres unmarked) [Compound 191, N-(2-chloro-4-(trifluoromethyl)phenyl)-2-(5-ethyl-6-(4-(5-hydroxy-6-methylpyrimidine-4-carbonyl)piperazin-1-yl)-2-(3-methoxybicyclo[3.1.0]hexan-6-yl)-7-oxo-[1,2,4]triazolo[1,5-a]pyrimidin-4(7H)-yl)acetamide] | 3.7 | – | – |
| CCc1c(N2CCN(C(=O)c3ncnc(C)c3O)CC2)c(=O)n2nc(C3C4COCC43)nc2n1CC(=O)Nc1ccc(C(F)(F)F)cc1Cl (centres unmarked) [Compound 192, 2-(2-(3-oxabicyclo[3.1.0]hexan-6-yl)-5-ethyl-6-(4-(5-hydroxy-6-methylpyrimidine-4-carbonyl)piperazin-1-yl)-7-oxo-[1,2,4]triazolo[1,5-a]pyrimidin-4(7H)-yl)-N-(2-chloro-4-(trifluoromethyl)phenyl)acetamide] | 8.4 | 4180 | – |
| CCc1c(C2=CCN(C(=O)c3ncnc(C)c3O)CCC2)c(=O)n2nc(C3CCOCC3)nc2n1CC(=O)Nc1ccc(C(F)(F)F)cc1Cl [Compound 196, N-(2-chloro-4-(trifluoromethyl)phenyl)-2-(5-ethyl-6-(1-(5-hydroxy-6-methylpyrimidine-4-carbonyl)-2,5,6,7-tetrahydro-1H-azepin-4-yl)-7-oxo-2-(tetrahydro-2H-pyran-4-yl)-[1,2,4]triazolo[1,5-a]pyrimidin-4(7H)-yl)acetamide] | 1280 | – | – |
| CCc1c(N2CCN(C(=O)c3ncccc3O)CC2)c(=O)n2nc(C3=CCOCC3)nc2n1CC(=O)Nc1ccc(Cl)c(C(F)(F)F)c1 [Compound 197] | 3.8 | 28 | – |
| CCc1c(N2CCN(C(=O)c3ncccc3O)CC2)c(=O)n2nc(C3=CCOCC3)nc2n1CC(=O)Nc1ccc(OC(F)(F)F)cc1 [Compound 198] | 2.3 | 129 | – |
| CCc1c(N2CC3CCC(C2)N3C(=O)c2ncccc2O)c(=O)n2nc(C3=CCOCC3)nc2n1CC(=O)Nc1ccc(Cl)c(C(F)(F)F)c1 [Compound 199] | 9.3 | 3350 | – |
| CCc1c(N2CC3CCC(C2)N3C(=O)c2ncccc2O)c(=O)n2nc(C3=CCOCC3)nc2n1CC(=O)Nc1ccc(OC(F)(F)F)cc1 [Compound 200] | 4.4 | 7240 | – |
| CCc1c(N2CC3CCC(C2)N3C(=O)c2nccc(Cl)c2O)c(=O)n2nc(C3=CCOCC3)nc2n1CC(=O)Nc1ccc(C(F)(F)F)nc1Cl [Compound 201] | 7.3 | 802 | – |
| CCc1c(N2CC3CCC(C2)N3C(=O)c2ncccc2O)c(=O)n2nc(C3=CCC(OC)CC3)nc2n1CC(=O)Nc1ccc(C(F)(F)F)cc1C (centres unmarked) [Compound 202, 2-(5-ethyl-6-(8-(3-hydroxypicolinoyl)-3,8-diazabicyclo[3.2.1]octan-3-yl)-2-(4-methoxycyclohex-1-en-1-yl)-7-oxo-[1,2,4]triazolo[1,5-a]pyrimidin-4(7H)-yl)-N-(2-methyl-4-(trifluoromethyl)phenyl)acetamide] | 7 | 1040 | – |
| CCc1c(N2CC3CCC(C2)N3C(=O)c2ncccc2O)c(=O)n2nc(C3=CCN(CC(F)F)CC3)nc2n1CC(=O)Nc1ccc(C(F)(F)F)cc1C [Compound 203, 2-(2-(1-(2,2-difluoroethyl)-1,2,3,6-tetrahydropyridin-4-yl)-5-ethyl-6-(8-(3-hydroxypicolinoyl)-3,8-diazabicyclo[3.2.1]octan-3-yl)-7-oxo-[1,2,4]triazolo[1,5-a]pyrimidin-4(7H)-yl)-N-(2-methyl-4-(trifluoromethyl)phenyl)acetamide] | 8.7 | 967 | – |
| CCc1c(N2CC3CCC(C2)N3C(=O)c2ncccc2O)c(=O)n2nc(-c3cnn(C)c3)nc2n1CC(=O)Nc1ccc(C(F)(F)F)cc1C [Compound 204] | 7.1 | 1790 | – |
| CCc1c(N2CC3CC(F)C(C2)N3C(=O)c2ncccc2O)c(=O)n2nc(C3=CCOCC3)nc2n1CC(=O)Nc1ccc(C(F)(F)F)cc1C (centres unmarked) [Compound 205] | 10.9 | 2370 | – |
| CCc1c(N2C3CCC2CN(C(=O)c2ncccc2O)C3)c(=O)n2nc(C3=CCOCC3)nc2n1CC(=O)Nc1ccc(C(F)(F)F)cc1C [Compound 206] | 3.6 | 1140 | – |
| CCc1c(N2C3CCC2CN(C(=O)c2ncccc2O)C3)c(=O)n2nc(-c3cnn(C)c3)nc2n1CC(=O)Nc1ccc(C(F)(F)F)cc1C [Compound 207] | 5.1 | 1140 | – |
| CCc1c(N2C3CCC2CN(C(=O)c2ncnc(C)c2O)C3)c(=O)n2nc(-c3cnn(C)c3)nc2n1CC(=O)Nc1ccc(C(F)(F)F)cc1C [Compound 208] | 6.2 | 440 | – |
